What all share (test): Pre-emergent herbicidal activity (Table A)
What all share (type): in vivo

The subject of one assay is Rhizome Johnsongrass. The note with it: Sorghum halepense, pre-emergence, Rhjg, 11.2 kg/ha, 10-14 days, read-out: herbicidal rating (% inhibition). The procedure: (§1) The herbicidal ratings used in Tables A and B were assigned according to a scale based on the percent inhibition of each plant species. The herbicide rating symbols in Tables A and B are defined as follows: […]
(§2) One set of pre-emergent tests was conducted as follows:
(§3) Topsoil was placed in a pan and compacted to a depth of 0.95 to 1.27 cm. from the top of the pan. A predetermined number of seeds of each of several monocotyledonous and dicotyledonous annual plant species and/or vegetative propagules of various perennial plant species were placed on top of the soil. The soil required to level fill a pan after seeding or adding vegetative propagules was weighed into another pan. A known amount of the test compound dissolved or suspended in an organic solvent or water and applied in acetone or water as a carrier was thoroughly mixed with this cover soil, and the herbicide/soil mixture was used as a cover layer for the previously prepared pan.
(§4) The plant species usually regarded as weeds which were utilized in one set of pre-emergent activity tests, the data for which are shown in Table A, are identified by letter headings printed diagonally above the columns according to the following legend: […]

The test system of the next assay is Yellow Nutsedge. The note with it: Cyperus, pre-emergence, Yens, 11.2 kg/ha, 10-14 days, read-out: herbicidal rating (% inhibition). The method, then: as §1, §2, §3, §4
The test system of another assay is Morningglory. The note with it: Ipomoea, pre-emergence, Mogl, 11.2 kg/ha, 10-14 days, read-out: herbicidal rating (% inhibition). The method, then: as §1, §2, §3, §4
Another assay deals with Downy Brome. The conditions noted are these: Bromus tectorum, pre-emergence, Dobr, 11.2 kg/ha, 10-14 days, read-out: herbicidal rating (% inhibition). The procedure:
as §1, §2, §3, §4

Another assay has as its system Common Lambsquarters. The note with it: Chenopodium album, pre-emergence, Colq, 11.2 kg/ha, 10-14 days, read-out: herbicidal rating (% inhibition). The procedure:
as §1, §2, §3, §4

In the next assay the test system is Pennsylvania Smartweed. The conditions noted are these: pre-emergence, Pesw, 11.2 kg/ha, 10-14 days, read-out: herbicidal rating (% inhibition). The procedure: as §1, §2, §3, §4
Another assay deals with Barnyardgrass. The note with it: Echinochloa crus-galli, pre-emergence, Bygr, 11.2 kg/ha, 10-14 days, read-out: herbicidal rating (% inhibition). The method, then: as §1, §2, §3, §4
In the next assay the test system is Cocklebur. The conditions noted are these: Xanthium strumarium, pre-emergence, Cobu, 11.2 kg/ha, 10-14 days, read-out: herbicidal rating (% inhibition). The procedure: as §1, §2, §3, §4
Another assay concerns Velvetleaf. The conditions noted are these: Abutilon theophrasti, pre-emergence, Vele, 11.2 kg/ha, 10-14 days, read-out: herbicidal rating (% inhibition). The procedure: as §1, §2, §3, §4
A further assay relates to Quackgrass. The note with it: pre-emergence, Rhqg, 11.2 kg/ha, 10-14 days, read-out: herbicidal rating (% inhibition). The procedure: as §1, §2, §3, §4
A further assay deals with Canada thistle. The note with it: Cirsium arvense, pre-emergence, Cath, 11.2 kg/ha, 10-14 days, read-out: herbicidal rating (% inhibition). The procedure: as §1, §2, §3, §4

Each structure is given as a SMILES string.

As a reminder, the inhibition is the share of the control response that was lost under treatment. Take `COC(=O)c1c(OC)nc(C(F)(F)F)c(C(=O)OC)c1CC(C)C` [Compound 2, 3,5-pyridinedicarboxylic acid, 2-methoxy-4-(2-methylpropyl)-6-(trifluoromethyl)-, dimethyl ester]: the inhibition at 11200 g/ha in the assay with Rhizome Johnsongrass, in the assay on Yellow Nutsedge, in the assay on Morningglory, in the assay with Downy Brome, in the assay on Common Lambsquarters and in the assay with Pennsylvania Smartweed was 75 to 100% in each case. The inhibition at 11200 g/ha in the assay on Barnyardgrass, in the assay with Cocklebur, in the assay with Velvetleaf, in the assay on Quackgrass and with Canada thistle was 75 to 100% in each case.

For the compound `CCOC(=O)c1c(OCC)nc(C(F)(F)F)c(C(=O)OC)c1CC(C)C` [Compound 3, 3,5-pyridinedicarboxylic acid, 2-ethoxy-4-(2-methylpropyl)-6-(trifluoromethyl)-, 3-ethyl 5-methyl ester, hydrate (1:0.4)], the inhibition at 11200 g/ha in the assay with Rhizome Johnsongrass lay in the range of 0 to 24%; in the assay on Yellow Nutsedge, 25 to 49%; in the assay on Morningglory, 50 to 74%; with Downy Brome, 75 to 100%; in the assay on Common Lambsquarters, 75 to 100%; in the assay with Pennsylvania Smartweed it was 50 to 74%. Moreover, the inhibition at 11200 g/ha in the assay with Barnyardgrass lay within 75 to 100%; in the assay on Cocklebur, 0 to 24%; with Velvetleaf, 0 to 24%; in the assay on Quackgrass, 75 to 100%; in the assay with Canada thistle, 75 to 100%.

`CCOC(=O)c1c(OC)nc(C(F)(F)F)c(C(=O)OC)c1CC(C)C` [Compound 4, 3,5-pyridinedicarboxylic acid, 2-methoxy-4-(2-methylpropyl)-6-(trifluoromethyl)-, 3-ethyl 5-methyl ester]: the inhibition at 11200 g/ha fell in the range of 75 to 100% with Rhizome Johnsongrass; 25 to 49% in the assay with Yellow Nutsedge; 75 to 100% with Morningglory; 75 to 100% with Downy Brome; 75 to 100% with Common Lambsquarters; 75 to 100% in the assay with Pennsylvania Smartweed. In addition, the inhibition at 11200 g/ha in the assay on Barnyardgrass lay within 75 to 100%; with Cocklebur it was 0 to 24%; in the assay with Velvetleaf, 75 to 100%; in the assay on Quackgrass, 75 to 100%; in the assay with Canada thistle, 75 to 100%.

For `CCOC(=O)c1c(OC(C)C)nc(C(F)(F)F)c(C(=O)OC)c1CC(C)C` [Compound 5, 3,5-pyridinedicarboxylic acid, 2-(1-methylethoxy)-4-(2-methylpropyl)-6-(trifluoromethyl)-, 3-ethyl 5-methyl ester], the inhibition at 11200 g/ha in the assay on Rhizome Johnsongrass was 75 to 100%; with Yellow Nutsedge it was 0 to 24%; in the assay with Morningglory it was 0 to 24%; with Downy Brome, 75 to 100%; in the assay with Common Lambsquarters it was 75 to 100%; in the assay with Pennsylvania Smartweed, 25 to 49%. Further, the inhibition at 11200 g/ha was 75 to 100% in the assay with Barnyardgrass; 0 to 24% with Cocklebur; 0 to 24% with Velvetleaf; 50 to 74% with Quackgrass; 0 to 24% with Canada thistle.

As to `CCOc1nc(C(F)(F)F)c(C(=O)OC)c(CC(C)C)c1C(=O)SC` [Compound 8, 3-pyridinecarboxylic acid, 6-ethoxy-4-(2-methylpropyl)-5-[(methylthio)carbonyl]-2-(trifluoromethyl)-, methyl ester], the inhibition at 11200 g/ha fell in the range of 0 to 24% in the assay on Rhizome Johnsongrass; 0 to 24% in the assay with Yellow Nutsedge; 75 to 100% in the assay on Morningglory; 75 to 100% in the assay with Common Lambsquarters; 75 to 100% in the assay on Pennsylvania Smartweed; 75 to 100% with Barnyardgrass. Besides, the inhibition at 11200 g/ha in the assay with Cocklebur was in the range of 0 to 24%; in the assay with Velvetleaf it was 75 to 100%; with Quackgrass it was 75 to 100%; in the assay with Canada thistle, 0 to 24%.

Regarding `COC(=O)c1c(OC)nc(C(F)(F)F)c(C(=O)OC)c1C1CC1` [Compound 9, 3,5-pyridinedicarboxylic acid, 4-cyclopropy1-2-methoxy-6-(trifluoromethyl)-, dimethyl ester], the inhibition at 11200 g/ha in the assay on Rhizome Johnsongrass, in the assay with Yellow Nutsedge, with Morningglory, in the assay with Downy Brome, with Common Lambsquarters and in the assay on Pennsylvania Smartweed was 75 to 100% each time. In addition, the inhibition at 11200 g/ha in the assay on Barnyardgrass was in the range of 75 to 100%; in the assay with Cocklebur, 0 to 24%; with Velvetleaf it was 75 to 100%; in the assay on Quackgrass, 75 to 100%; in the assay on Canada thistle, 75 to 100%.

`CCOC(=O)c1c(C(F)(F)C(F)(F)F)nc(OC)c(C(=O)OC)c1CC(C)C` [Compound 11, 3,5-pyridinedicarboxylic acid, 2-methoxy-4-(2-methylpropyl)-6-(pentafluoroethyl)-, 5-ethyl 3-methyl ester]: the inhibition at 11200 g/ha fell in the range of 0 to 24% in the assay on Rhizome Johnsongrass; 75 to 100% with Yellow Nutsedge; 50 to 74% in the assay with Morningglory; 75 to 100% in the assay with Downy Brome; 75 to 100% in the assay on Common Lambsquarters; 75 to 100% in the assay on Pennsylvania Smartweed. Also, the inhibition at 11200 g/ha in the assay on Barnyardgrass lay within 75 to 100%; with Cocklebur, 0 to 24%; with Velvetleaf, 25 to 49%; in the assay with Quackgrass, 75 to 100%; in the assay on Canada thistle, 25 to 49%.

On to `COc1nc(C(F)(F)F)c(C(=O)SC)c(C2CC2)c1C(=O)SC` [Compound 12, 3,5-pyridinedicarbothioic acid, 4-cyclopropy1-2-methoxy-6-(trifluoromethyl)-, S,S-dimethyl ester], for which the inhibition at 11200 g/ha with Rhizome Johnsongrass lay in the range of 0 to 24%; in the assay on Yellow Nutsedge, 25 to 49%; with Morningglory, 75 to 100%; in the assay on Downy Brome it was 75 to 100%; with Common Lambsquarters it was 75 to 100%; in the assay with Pennsylvania Smartweed it was 75 to 100%. The inhibition at 11200 g/ha with Barnyardgrass is 75 to 100%; in the assay with Cocklebur, 25 to 49%; in the assay with Velvetleaf, 75 to 100%; in the assay on Quackgrass it was 75 to 100%; in the assay with Canada thistle, 25 to 49%.

Turning to `CCOc1nc(C(F)(F)F)c(C(=O)OC)c(CC(C)C)c1C(=O)N(C)C` [Compound 17, 3-pyridinecarboxylic acid, 5-[(dimethylamino)carbony]-6-ethoxy-4-(2-methylpropyl)-2-(trifluoromethyl)-, methyl ester], the inhibition at 11200 g/ha was 0 to 24% in the assay with Rhizome Johnsongrass; 0 to 24% in the assay with Yellow Nutsedge; 0 to 24% with Morningglory; 50 to 74% in the assay with Common Lambsquarters; 0 to 24% in the assay on Pennsylvania Smartweed; 75 to 100% in the assay on Barnyardgrass. Further, the inhibition at 11200 g/ha in the assay on Cocklebur, in the assay on Velvetleaf, in the assay with Quackgrass and in the assay with Canada thistle was 0 to 24% in each case.

For `CCOc1nc(C(F)(F)F)c(C(=O)OC)c(CC(C)C)c1C(=O)O` [Compound 18, 3,5-pyridinedicarboxylic acid, 2-ethoxy-4-(2-methylpropyl)-6-(trifluoromethyl)-, 5-methyl ester], the inhibition at 11200 g/ha with Rhizome Johnsongrass lay in the range of 0 to 24%; with Yellow Nutsedge, 0 to 24%; in the assay with Morningglory it was 0 to 24%; in the assay on Common Lambsquarters it was 50 to 74%; with Pennsylvania Smartweed it was 0 to 24%; with Barnyardgrass, 0 to 24%. Besides, the inhibition at 11200 g/ha with Cocklebur is 25 to 49%; in the assay on Velvetleaf, 0 to 24%; with Quackgrass, 0 to 24%; with Canada thistle it was 0 to 24%.

For the compound `CCOc1nc(C(F)(F)F)c(C(=O)SC)c(CC(C)C)c1C(=O)SC` [Compound 19, 3,5-pyridinedicarbothioic acid, 2-ethoxy-4-(2-methylpropyl)-6-(trifluoromethyl)-, S,S-dimethyl ester], the inhibition at 11200 g/ha was 0 to 24% in the assay with Rhizome Johnsongrass; 0 to 24% with Yellow Nutsedge; 50 to 74% with Morningglory; 75 to 100% in the assay on Common Lambsquarters; 75 to 100% in the assay on Pennsylvania Smartweed; 75 to 100% in the assay on Barnyardgrass. Further, the inhibition at 11200 g/ha was in the range of 25 to 49% with Cocklebur, 75 to 100% in the assay with Velvetleaf, 75 to 100% in the assay on Quackgrass and 25 to 49% in the assay with Canada thistle.

The record behind these values is US5391540A, “Substituted pyridine compounds” (Rohm and Haas Company, priority 1993, dated 1995).
